Bounds are passed on as bounds.

What is called IC50 is the point on the concentration scale where inhibition reaches its midpoint. High values mean lower potency, low ones higher potency.

In assay [1] the target is Ribosomal protein S6 kinase alpha-3 (Homo sapiens, UniProt P51812). The experiment in a line: Inhibition of RSK2 (unknown origin) after 60 mins by TR-FRET assay. In general terms: TR-FRET usually uses a lanthanide donor and a delayed reading to cut background.
Assay [2] deals with Death-associated protein kinase 3 (Homo sapiens, UniProt O43293). The experiment in a line: Inhibition of ZIPK (unknown origin) after 60 mins by TR-FRET assay.
The target of assay [3] is T1, Mitogen-activated protein kinase kinase kinase kinase 2 (Homo sapiens, UniProt Q12851).
T1 sequence (Q12851 whole entry): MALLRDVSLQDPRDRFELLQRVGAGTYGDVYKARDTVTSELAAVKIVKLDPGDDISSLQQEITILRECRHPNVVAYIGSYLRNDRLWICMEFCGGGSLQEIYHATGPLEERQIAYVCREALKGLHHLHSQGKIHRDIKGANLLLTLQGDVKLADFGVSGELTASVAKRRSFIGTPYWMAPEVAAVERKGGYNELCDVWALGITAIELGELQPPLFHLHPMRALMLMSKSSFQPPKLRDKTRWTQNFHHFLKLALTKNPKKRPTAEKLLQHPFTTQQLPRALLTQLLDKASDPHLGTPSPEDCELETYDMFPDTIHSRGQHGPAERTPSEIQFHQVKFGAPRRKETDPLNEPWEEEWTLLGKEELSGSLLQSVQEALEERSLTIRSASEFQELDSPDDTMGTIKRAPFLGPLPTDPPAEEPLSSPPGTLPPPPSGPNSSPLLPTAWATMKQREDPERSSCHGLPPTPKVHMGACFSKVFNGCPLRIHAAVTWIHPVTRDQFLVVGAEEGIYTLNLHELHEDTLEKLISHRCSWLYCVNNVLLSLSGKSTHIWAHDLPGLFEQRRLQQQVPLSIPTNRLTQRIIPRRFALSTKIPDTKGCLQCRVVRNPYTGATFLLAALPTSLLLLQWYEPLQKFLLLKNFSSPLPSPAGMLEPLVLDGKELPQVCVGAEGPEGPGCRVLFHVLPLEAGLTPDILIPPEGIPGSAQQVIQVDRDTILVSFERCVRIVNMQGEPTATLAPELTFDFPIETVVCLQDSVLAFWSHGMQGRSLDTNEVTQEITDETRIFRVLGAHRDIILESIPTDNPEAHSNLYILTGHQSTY
The experiment in a line: Inhibition of MAP4K2 (unknown origin) after 60 mins by TR-FRET assay.

Assay [4] has as its target Macrophage colony-stimulating factor 1 receptor (Homo sapiens, UniProt P07333). The experiment in a line: Inhibition of CSF1R (unknown origin) after 60 mins by TR-FRET assay.
For assay [5], the target named is Serine/threonine-protein kinase PAK 4 (Homo sapiens, UniProt O96013). The experiment in a line: Inhibition of PAK4 kinase domain (unknown origin) after 60 mins by TR-FRET assay.
Assay [6] concerns the target Mitogen-activated protein kinase 8 (Homo sapiens, UniProt P45983). The experiment in a line: Inhibition of JNK1 (unknown origin) after 60 mins by TR-FRET assay.
The target in assay [7] is Dual specificity mitogen-activated protein kinase kinase 1 (Homo sapiens, UniProt Q02750). The experiment in a line: Inhibition of MEK1 (unknown origin) after 60 mins by TR-FRET assay.
Assay [8] addresses T2, Tyrosine-protein kinase JAK3 (Homo sapiens, UniProt P52333).
T2 sequence (P52333 whole entry): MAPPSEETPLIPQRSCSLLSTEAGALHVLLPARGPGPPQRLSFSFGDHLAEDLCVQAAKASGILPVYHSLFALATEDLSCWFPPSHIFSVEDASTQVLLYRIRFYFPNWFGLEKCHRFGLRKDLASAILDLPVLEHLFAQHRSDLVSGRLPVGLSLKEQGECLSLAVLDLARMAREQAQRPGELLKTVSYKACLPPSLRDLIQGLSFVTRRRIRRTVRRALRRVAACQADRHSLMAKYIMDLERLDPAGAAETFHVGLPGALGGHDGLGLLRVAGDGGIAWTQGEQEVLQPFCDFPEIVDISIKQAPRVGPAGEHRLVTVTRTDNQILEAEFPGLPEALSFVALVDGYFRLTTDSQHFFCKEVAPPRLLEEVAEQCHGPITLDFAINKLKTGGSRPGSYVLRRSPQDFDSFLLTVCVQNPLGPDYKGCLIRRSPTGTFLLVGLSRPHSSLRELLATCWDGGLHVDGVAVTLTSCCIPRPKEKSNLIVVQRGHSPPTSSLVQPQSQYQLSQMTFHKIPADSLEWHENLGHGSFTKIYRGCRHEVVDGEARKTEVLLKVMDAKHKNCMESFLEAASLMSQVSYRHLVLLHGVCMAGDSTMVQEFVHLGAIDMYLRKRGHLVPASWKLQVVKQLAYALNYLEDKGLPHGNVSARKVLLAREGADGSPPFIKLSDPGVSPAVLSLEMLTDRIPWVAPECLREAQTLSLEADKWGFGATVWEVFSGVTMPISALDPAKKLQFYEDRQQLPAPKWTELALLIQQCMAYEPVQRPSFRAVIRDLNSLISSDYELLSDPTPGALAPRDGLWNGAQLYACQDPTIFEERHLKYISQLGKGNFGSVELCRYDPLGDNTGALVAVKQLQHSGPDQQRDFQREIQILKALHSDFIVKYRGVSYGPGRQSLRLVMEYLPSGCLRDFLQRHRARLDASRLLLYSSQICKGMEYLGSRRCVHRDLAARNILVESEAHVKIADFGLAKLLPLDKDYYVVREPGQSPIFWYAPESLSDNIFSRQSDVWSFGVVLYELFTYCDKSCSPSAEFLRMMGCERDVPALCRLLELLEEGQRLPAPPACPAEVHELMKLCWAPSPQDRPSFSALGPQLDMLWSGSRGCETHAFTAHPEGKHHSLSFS
The experiment in a line: Inhibition of JAK3 (unknown origin) after 60 mins by TR-FRET assay.

The target of assay [9] is Rho-associated protein kinase 1 (Homo sapiens, UniProt Q13464). The experiment in a line: Inhibition of ROCK1(unknown origin) after 60 mins by TR-FRET assay.
Assay [10] deals with Mitogen-activated protein kinase kinase kinase kinase 4 (Homo sapiens, UniProt O95819). The experiment in a line: Inhibition of MAP4K4 (unknown origin) after 60 mins by TR-FRET assay.
Chain of Mitogen-activated protein kinase kinase kinase kinase 4 (O95819 whole entry): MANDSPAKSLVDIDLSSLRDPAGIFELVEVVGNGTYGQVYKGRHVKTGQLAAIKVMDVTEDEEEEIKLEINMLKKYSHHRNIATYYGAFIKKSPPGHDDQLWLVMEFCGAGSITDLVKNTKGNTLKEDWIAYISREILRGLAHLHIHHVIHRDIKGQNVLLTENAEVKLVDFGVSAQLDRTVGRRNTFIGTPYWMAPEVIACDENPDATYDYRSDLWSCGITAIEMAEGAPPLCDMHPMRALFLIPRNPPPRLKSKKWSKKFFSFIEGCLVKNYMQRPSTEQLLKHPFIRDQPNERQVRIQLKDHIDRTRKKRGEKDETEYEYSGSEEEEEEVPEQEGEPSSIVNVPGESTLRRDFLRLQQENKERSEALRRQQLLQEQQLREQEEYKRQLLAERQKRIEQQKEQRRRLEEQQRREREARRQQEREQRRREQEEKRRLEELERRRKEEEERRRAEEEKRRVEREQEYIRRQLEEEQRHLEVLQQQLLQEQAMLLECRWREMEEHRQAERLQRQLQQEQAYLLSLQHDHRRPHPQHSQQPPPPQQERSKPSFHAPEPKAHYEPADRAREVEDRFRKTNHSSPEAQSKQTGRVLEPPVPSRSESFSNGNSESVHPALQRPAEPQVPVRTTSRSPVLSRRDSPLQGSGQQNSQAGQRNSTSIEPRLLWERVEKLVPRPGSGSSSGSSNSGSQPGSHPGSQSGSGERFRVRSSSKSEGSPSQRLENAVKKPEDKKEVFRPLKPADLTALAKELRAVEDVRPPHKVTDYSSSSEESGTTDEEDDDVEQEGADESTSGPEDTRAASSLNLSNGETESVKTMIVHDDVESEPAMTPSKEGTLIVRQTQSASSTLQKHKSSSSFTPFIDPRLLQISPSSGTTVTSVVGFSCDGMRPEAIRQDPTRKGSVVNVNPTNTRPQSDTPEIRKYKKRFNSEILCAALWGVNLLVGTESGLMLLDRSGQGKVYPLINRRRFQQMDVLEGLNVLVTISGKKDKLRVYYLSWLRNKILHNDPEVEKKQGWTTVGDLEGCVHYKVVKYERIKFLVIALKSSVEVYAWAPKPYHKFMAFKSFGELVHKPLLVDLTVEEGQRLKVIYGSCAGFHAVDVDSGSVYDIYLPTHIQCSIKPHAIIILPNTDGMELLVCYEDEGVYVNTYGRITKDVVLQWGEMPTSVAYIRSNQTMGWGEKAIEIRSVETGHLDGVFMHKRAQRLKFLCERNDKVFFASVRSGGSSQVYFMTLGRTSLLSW

Chain of Death-associated protein kinase 3 (O43293 whole entry): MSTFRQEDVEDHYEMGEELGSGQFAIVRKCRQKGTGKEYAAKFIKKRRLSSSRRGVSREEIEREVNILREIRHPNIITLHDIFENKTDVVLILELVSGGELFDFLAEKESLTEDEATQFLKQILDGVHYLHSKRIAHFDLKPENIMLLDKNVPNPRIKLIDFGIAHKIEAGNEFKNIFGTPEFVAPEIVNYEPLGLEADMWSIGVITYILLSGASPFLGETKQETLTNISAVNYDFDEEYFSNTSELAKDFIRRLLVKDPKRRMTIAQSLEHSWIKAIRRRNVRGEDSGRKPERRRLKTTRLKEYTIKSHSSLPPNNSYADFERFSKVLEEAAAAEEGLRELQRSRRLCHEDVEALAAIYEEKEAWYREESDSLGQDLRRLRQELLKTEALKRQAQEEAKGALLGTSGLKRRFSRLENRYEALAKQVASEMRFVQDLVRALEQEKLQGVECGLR
Chain of Dual specificity mitogen-activated protein kinase kinase 1 (Q02750 whole entry): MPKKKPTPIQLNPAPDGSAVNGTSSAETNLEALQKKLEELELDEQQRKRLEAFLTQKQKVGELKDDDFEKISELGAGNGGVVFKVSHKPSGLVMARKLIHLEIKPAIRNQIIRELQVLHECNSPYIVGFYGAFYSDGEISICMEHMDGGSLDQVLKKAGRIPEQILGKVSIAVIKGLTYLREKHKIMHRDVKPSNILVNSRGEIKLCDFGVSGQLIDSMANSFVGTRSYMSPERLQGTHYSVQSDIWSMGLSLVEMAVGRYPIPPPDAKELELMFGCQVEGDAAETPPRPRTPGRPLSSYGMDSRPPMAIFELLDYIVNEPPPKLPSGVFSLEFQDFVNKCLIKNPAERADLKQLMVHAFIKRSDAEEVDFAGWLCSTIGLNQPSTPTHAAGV
Chain of Ribosomal protein S6 kinase alpha-3 (P51812 whole entry): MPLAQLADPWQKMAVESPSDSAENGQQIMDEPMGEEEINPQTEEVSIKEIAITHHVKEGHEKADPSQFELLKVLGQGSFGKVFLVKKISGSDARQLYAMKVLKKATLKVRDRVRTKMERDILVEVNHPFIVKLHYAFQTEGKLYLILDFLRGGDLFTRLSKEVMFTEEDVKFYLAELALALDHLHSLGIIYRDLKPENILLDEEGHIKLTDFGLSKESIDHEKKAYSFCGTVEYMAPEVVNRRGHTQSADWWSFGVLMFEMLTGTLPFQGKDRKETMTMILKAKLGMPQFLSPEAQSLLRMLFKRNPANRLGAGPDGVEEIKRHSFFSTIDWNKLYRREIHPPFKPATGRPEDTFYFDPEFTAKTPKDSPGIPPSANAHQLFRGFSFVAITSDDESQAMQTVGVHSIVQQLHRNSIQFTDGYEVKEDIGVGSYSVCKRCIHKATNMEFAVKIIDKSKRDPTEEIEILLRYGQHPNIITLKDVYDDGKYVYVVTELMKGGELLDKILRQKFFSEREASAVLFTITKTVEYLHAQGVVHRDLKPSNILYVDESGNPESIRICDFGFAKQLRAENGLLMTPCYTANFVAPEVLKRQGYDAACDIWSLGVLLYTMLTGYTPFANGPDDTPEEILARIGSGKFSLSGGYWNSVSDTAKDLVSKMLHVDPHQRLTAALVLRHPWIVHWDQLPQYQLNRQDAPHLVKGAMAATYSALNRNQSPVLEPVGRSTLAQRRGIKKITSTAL
Chain of Macrophage colony-stimulating factor 1 receptor (P07333 whole entry, the tested form may be a part): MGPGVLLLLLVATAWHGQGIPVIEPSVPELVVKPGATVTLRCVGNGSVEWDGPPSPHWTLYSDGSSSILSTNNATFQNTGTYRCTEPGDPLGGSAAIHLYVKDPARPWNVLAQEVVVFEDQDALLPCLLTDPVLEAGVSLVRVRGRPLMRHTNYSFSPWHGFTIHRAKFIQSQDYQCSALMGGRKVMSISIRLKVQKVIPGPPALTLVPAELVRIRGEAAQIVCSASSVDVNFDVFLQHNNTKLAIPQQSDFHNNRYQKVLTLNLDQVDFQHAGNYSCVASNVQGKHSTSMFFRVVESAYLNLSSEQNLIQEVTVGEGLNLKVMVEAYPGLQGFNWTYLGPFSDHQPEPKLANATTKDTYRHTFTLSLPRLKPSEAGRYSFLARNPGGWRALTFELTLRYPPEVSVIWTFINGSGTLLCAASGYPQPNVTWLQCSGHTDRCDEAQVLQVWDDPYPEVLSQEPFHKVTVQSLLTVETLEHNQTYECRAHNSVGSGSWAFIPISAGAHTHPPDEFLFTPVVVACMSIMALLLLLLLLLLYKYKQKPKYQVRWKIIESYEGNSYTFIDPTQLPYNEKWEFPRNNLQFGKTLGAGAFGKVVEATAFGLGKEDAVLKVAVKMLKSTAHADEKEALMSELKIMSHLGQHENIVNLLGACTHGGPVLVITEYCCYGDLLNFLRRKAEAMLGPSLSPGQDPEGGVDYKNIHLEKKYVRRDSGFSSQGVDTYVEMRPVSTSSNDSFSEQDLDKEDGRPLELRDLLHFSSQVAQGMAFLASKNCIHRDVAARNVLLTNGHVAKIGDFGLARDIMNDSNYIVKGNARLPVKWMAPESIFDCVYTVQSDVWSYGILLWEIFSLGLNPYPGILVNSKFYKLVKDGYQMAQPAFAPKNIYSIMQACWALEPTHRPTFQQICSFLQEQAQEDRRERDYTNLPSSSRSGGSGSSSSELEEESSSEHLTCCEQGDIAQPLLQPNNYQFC
Chain of Mitogen-activated protein kinase 8 (P45983 whole entry): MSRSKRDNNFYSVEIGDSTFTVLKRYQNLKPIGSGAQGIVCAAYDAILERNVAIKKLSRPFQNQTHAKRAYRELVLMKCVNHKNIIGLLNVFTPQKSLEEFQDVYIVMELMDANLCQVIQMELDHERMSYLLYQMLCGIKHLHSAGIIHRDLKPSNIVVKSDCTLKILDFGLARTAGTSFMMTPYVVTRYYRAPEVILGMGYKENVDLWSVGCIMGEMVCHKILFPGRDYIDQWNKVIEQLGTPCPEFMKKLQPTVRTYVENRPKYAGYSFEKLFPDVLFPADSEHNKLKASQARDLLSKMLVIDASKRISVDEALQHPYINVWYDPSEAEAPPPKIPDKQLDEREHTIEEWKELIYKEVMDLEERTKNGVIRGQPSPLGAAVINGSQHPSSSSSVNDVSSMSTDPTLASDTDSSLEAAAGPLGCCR
Chain of Serine/threonine-protein kinase PAK 4 (O96013 whole entry, the tested form may be a part): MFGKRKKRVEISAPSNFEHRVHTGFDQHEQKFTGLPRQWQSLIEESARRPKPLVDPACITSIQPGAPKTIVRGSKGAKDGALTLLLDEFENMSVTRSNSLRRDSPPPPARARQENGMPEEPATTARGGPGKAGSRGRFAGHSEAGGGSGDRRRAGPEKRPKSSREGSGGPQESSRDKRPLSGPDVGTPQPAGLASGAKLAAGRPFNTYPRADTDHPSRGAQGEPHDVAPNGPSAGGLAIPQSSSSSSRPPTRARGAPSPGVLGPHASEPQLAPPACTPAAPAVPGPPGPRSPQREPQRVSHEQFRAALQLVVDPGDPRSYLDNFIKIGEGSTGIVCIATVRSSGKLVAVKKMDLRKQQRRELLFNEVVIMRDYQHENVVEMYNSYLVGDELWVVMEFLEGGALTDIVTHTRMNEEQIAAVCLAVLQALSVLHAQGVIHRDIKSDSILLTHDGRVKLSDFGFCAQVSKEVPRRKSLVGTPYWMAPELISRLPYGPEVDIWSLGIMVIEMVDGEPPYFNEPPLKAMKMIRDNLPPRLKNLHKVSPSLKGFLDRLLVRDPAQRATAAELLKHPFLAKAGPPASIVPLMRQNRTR

For `FC(F)(F)CNc1nc(Nc2ccc(N3CCOCC3)c(Cl)c2)nc2ccoc12`, the IC50 is above 10 µM in [1]; above 10 µM in assay [2]; 1.57 µM in assay [3]; above 10 µM in assay [4]; above 10 µM in assay [5]; 0.513 µM in [6]. Further, the IC50 in [7], in [8], in assay [9] and in [10] was above 10 µM in each case.
As to `FC(F)(F)CNc1nc(Nc2ccc3cn[nH]c3c2)nc2ccoc12`, the IC50 in [1] is 9.81 µM; in [4] it was above 10 µM; in [5], 6.44 µM; in [6], 2.89 µM; in assay [7], above 10 µM; in [8] it was above 10 µM. Moreover, the concentration for half-maximal inhibition (IC50) in assay [9] was 8.61 µM; in assay [10], above 10 µM.
In the case of `Cc1n[nH]c2cc(Nc3nc(NC4CC4)c4occc4n3)ccc12`, the 50% inhibitory concentration (IC50) is 4.98 µM in assay [2]; 6.24 µM in assay [3]; above 10 µM in assay [4]; 6.79 µM in [5]; 2.75 µM in assay [6]; above 10 µM in [7]. Also, the IC50 was above 10 µM in assay [8], above 10 µM in assay [9] and 9.43 µM in assay [10].
Take `CC1(C)OCC(=O)Nc2cc(Nc3nc(NCC(F)(F)F)c4occc4n3)ccc21`: the half-inhibitory concentration (IC50) in assay [1] is above 10 µM; in assay [2] it was above 10 µM; in assay [3] it was 2.94 µM; in assay [4], above 10 µM; in assay [5], above 10 µM; in assay [6] it was 2.67 µM. Also, the IC50 in assay [7] was above 10 µM; in assay [8], above 10 µM; in assay [9] it was 5.78 µM; in assay [10], above 10 µM.

For the origin of these results see ChEMBL document CHEMBL4007384, “Synthesis and optimization of furano[3,2-d]pyrimidines as selective spleen tyrosine kinase (Syk) inhibitors” (Bioorg Med Chem Lett, 2016).
